What was measured:
[1] = molecular target: T1, human carbonic anhydrase II (hCA II) (Homo sapiens, UniProt P00918); assay: esterase assay (p-nitrophenyl acetate hydrolysis, […] nm), Lineweaver-Burk; type: biochemical
T1 construct: gene CA2; native enzyme purified from human erythrocytes

[2] = molecular target: T2, human carbonic anhydrase I (hCA I) (Homo sapiens, UniProt P00915); assay: as above; type: biochemical
T2 construct: gene CA1; native enzyme purified from human erythrocytes
T2 sequence (P00915 2-261): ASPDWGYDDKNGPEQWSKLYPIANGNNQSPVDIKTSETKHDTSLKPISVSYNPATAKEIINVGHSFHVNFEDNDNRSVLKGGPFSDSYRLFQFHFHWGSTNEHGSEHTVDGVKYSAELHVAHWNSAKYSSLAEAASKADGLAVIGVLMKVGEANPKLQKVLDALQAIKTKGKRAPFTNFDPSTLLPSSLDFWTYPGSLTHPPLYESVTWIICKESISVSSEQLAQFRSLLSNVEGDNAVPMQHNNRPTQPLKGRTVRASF

Compound: COc1cc(CNC(=O)CCCC/C=C/C(C)C)ccc1O [capsaicin, trans-8-methyl-N-vanillyl-6-nonenamide]
- Ki [1]: 208 ± 14.4 µM
- Ki [2]: 696 ± 59.4 µM

Source: paper PMC6270996, “Capsaicin: A Potent Inhibitor of Carbonic Anhydrase Isoenzymes” (Molecules, 2014)
